Source: patent US8175815B2, “Method for assessing absorption properties of low solubility compounds” (F. Hoffmann-La Roche AG, priority 2006, dated 2012)
≈ marks a conversion by molar mass, not a printed value. Where “and” joins values, the source holds several entries; their conditions need not be identical. Identical values can stand only once. Like-named read-outs stand apart in the source and are kept apart here.

How the values were obtained:
[1] = equilibrium solubility-pH, direct-UV microtitre plate (μSOL Evolution) with and without excipients; details: for pKa at 18 h / solubility at 18 h: aqueous universal buffer (pION); for pKa at 18 h: saturated drug suspension, pKa^APP ± SD; for solubility at 18 h: 25 °C, kinetic from dmso stock
[2] = mice, oral, cited from earlier work
[3] = flux function combining permeability and solubility measurement results; details: for flux increase factor: 1% HP-β-CD vs excipient-free; for net flux effect due to 1% HP-β-CD: pH 5.0, 6.2, 7.4, FIG. 13
[4] = Double-Sink PAMPA permeability with and without excipients
[5] = mice; +HP-β-CD / no excip.
[6] = physchem; details: pKa^APP ± SD
[7] = physchem
[8] = PAMPA, 30 min, 50 μM
[9] = 18 h
[10] = PAMPA, pH 5
[11] = buffer + 1% w/v HP-b-CD, * = anticipated salt limit exceeded
[12] = buffer, * = anticipated salt limit exceeded
[13] = apparent/true molecular weight, 40 μm ABL assumed, 0 mM NaTC (first value)
[14] = apparent ionization constant in saturated solution, excipient none
[15] = apparent ionization constant, excipient 3 mM NaTC
[16] = apparent ionization constant, excipient 15 mM NaTC
[17] = apparent ionization constant, excipient 0.1M KCl
[18] = apparent ionization constant, excipient 0.2M KCl
[19] = apparent ionization constant, excipient 1% HP-b-CD
[20] = apparent ionization constant, excipient 1% NMP
[21] = apparent ionization constant, excipient 1% PEG400
[22] = apparent ionization constant, excipient 1% PG
[23] = apparent ionization constant, excipient 5% PEG400
[24] = apparent ionization constant, excipient 5% PG
[25] = apparent ionization constant, excipient […] HP-b-CD
[26] = apparent ionization constant, excipient […] NMP
[27] = apparent ionization constant, excipient […] PEG400
[28] = apparent ionization constant, excipient […] PG

CCCSc1ccc2nc(NC(=O)OC)[nH]c2c1 [albendazole]
So^APP ([1]; buffer): 0.88 ± 0.07 µg/mL
S(pH 7.4) ([1]; buffer + 1% w/v HP-b-CD): 34 μg mL^−1
So^APP ([1]; buffer + 1% w/v HP-b-CD): 34 ± 1 µg/mL
S(pH 5.0) [1, 11]: 34 μg mL^−1
S(pH 6.2) [1, 11]: 34 μg mL^−1
S(pH 5.0) [1, 12]: 1.0 μg mL^−1
S(pH 6.2) [1, 12]: 0.89 μg mL^−1
S(pH 7.4) [1, 12]: 0.88 μg mL^−1
Cmax +HP-β-CD ([2]; HP-β-CD (20% w/v)): 390 ng/mL
Tmax +HP-β-CD ([2]; HP-β-CD (20% w/v)): 19.8 min
Cmax no excip. ([2]; suspension of excipient-free drug): 90 ng/mL
Tmax no excip. [2]: 45 min
flux increase factor ([3]; pH 5.0): 3.0
flux increase factor ([3]; pH 6.2): 3.1
flux increase factor ([3]; pH 7.4): 3.1
average flux gain factor ([3]; 1% HP-β-CD, average over pH 5.0, 6.2, 7.4): 3.1
net flux effect due to 1% HP-β-CD [3]: gains, uniformly at the three pH values of interest
Po ([4]; buffer): 4.28 ± 1.59 E−04 cm s^−1
Po ([4]; buffer + 1% w/v HP-b-CD): 3.12 ± 0.30 E−05 cm s^−1
AUC Ratio [5]: 1.4
Cmax Ratio [5]: 4.3
Tmax Ratio [5]: 0.4

CCCCc1oc2ccccc2c1C(=O)c1cc(I)c(OCCN(CC)CC)c(I)c1 [amiodarone]
net flux effect due to 1% HP-β-CD [3]: cross-over pattern as a function of pH

COc1ccc(CCN2CCC(Nc3nc4ccccc4n3Cc3ccc(F)cc3)CC2)cc1 [astemizole]
pKa at 18 h [6]: 9.1 ± 0.5
pKa [7]: 5.99 ± 0.06
PABL 0 mM NaTC [8]: 1080
PABL 3 mM NaTC [8]: 561
PABL 15 mM NaTC [8]: 9
determined ABL thickness hABL [8]: < 50 μm
MW*/MW ([4]; 3 mM NaTC (second value)): 5
MW*/MW ([4]; 15 mM NaTC (third value)): 56000
MW*/MW [4, 13]: ~1
So ± SD [9]: 4.0 ± 2.9 µg/mL

Clc1ccccc1C(c1ccccc1)(c1ccccc1)n1ccnc1 [clotrimazole]
pKa at 18 h [6]: 7.4 ± 1.1
pKa [7]: 6.02 ± 0.05
PABL 0 mM NaTC [8]: 2400
PABL 3 mM NaTC [8]: 604
determined ABL thickness hABL [8]: < 50 μm
MW*/MW ([4]; 3 mM NaTC (second value)): 5
MW*/MW [4, 13]: < 1

OCCN(CCO)c1nc(N2CCCCC2)c2nc(N(CCO)CCO)nc(N3CCCCC3)c2n1 [dipyridamole]
pKa at 18 h [1, 14]: 5.8 ± 0.1
pKa at 18 h [1, 15]: 5.6 ± 0.1
pKa at 18 h [1, 16]: 5.2 ± 0.1
pKa at 18 h [1, 17]: 6 ± 0.1
pKa at 18 h [1, 18]: 5.9 ± 0.1
pKa at 18 h [1, 19]: 5.6 ± 0.1
pKa at 18 h [1, 20]: 5.7 ± 0.1
pKa at 18 h [1, 21]: 5.9 ± 0.2
pKa at 18 h [1, 22]: 5.8 ± 0.1
pKa at 18 h [1, 23]: 6.2 ± 0.1
pKa at 18 h [1, 24]: 5.8 ± 0.1
pKa at 18 h [1, 25]: 5.8 ± 0.1
pKa at 18 h [1, 26]: 5.8 ± 0.1
pKa at 18 h [1, 27]: 6.8 ± 0.1
pKa at 18 h [1, 28]: 5.8 ± 0.1
So ± SD ([1]; excipient 3 mM NaTC): 5.3 ± 0.9 µg/mL
So^APP ± SD ([1]; excipient 3 mM NaTC): 24 ± 2 µg/mL
So ± SD ([1]; excipient 15 mM NaTC): 9.9 ± 1.7 µg/mL
So^APP ± SD ([1]; excipient 15 mM NaTC): 110 µg/mL and 110 ± 5 µg/mL
So ± SD ([1]; excipient 0.1M KCl): 3.3 ± 0.8 µg/mL
So^APP ± SD ([1]; excipient 0.1M KCl): 5.2 ± 0.8 µg/mL
So ± SD ([1]; excipient 0.2M KCl): 3.1 ± 0.7 µg/mL
So^APP ± SD ([1]; excipient 0.2M KCl): 5.8 ± 0.9 µg/mL
So ± SD ([1]; excipient 1% HP-b-CD): 3.2 ± 0.7 µg/mL
So^APP ± SD ([1]; excipient 1% HP-b-CD): 15 ± 1 µg/mL
So ± SD ([1]; excipient 1% NMP): 2.4 ± 0.7 µg/mL
So^APP ± SD ([1]; excipient 1% NMP): 8.1 ± 1.5 µg/mL
So ± SD ([1]; excipient 1% PEG400): 5.0 ± 1.9 µg/mL
So^APP ± SD ([1]; excipient 1% PEG400): 11 ± 3 µg/mL
So ± SD ([1]; excipient 1% PG): 2.7 ± 0.2 µg/mL
So^APP ± SD ([1]; excipient 1% PG): 6.5 ± 0.3 µg/mL
So ± SD ([1]; excipient 5% PEG400): 13.7 ± 2.4 µg/mL
So^APP ± SD ([1]; excipient 5% PEG400): 14 ± 1 µg/mL
So ± SD ([1]; excipient 5% PG): 3.9 ± 0.8 µg/mL
So^APP ± SD ([1]; excipient 5% PG): 9.8 ± 1.3 µg/mL
So ± SD ([1]; excipient […] HP-b-CD): 2.8 ± 0.7 µg/mL
So^APP ± SD ([1]; excipient […] HP-b-CD): 7.1 ± 0.8 µg/mL
So ± SD ([1]; excipient […] NMP): 2.2 ± 0.6 µg/mL
So^APP ± SD ([1]; excipient […] NMP): 5.9 ± 1.1 µg/mL
So^APP ± SD ([1]; excipient […] PEG400): 4.6 ± 1.2 µg/mL
So ± SD ([1]; excipient […] PG): 2.1 ± 0.3 µg/mL
So^APP ± SD ([1]; excipient […] PG): 5.8 ± 0.5 µg/mL
So ± SD ([1]; excipient none): 2.3 ± 0.7 µg/mL
So^APP ± SD ([1]; excipient none): 6.2 ± 1.1 µg/mL and 6.2 µg/mL
pKa [7]: 6.22 ± 0.15
PABL 0 mM NaTC [8]: 941
PABL 3 mM NaTC [8]: 922
PABL 15 mM NaTC [8]: 47
MW*/MW ([4]; 3 mM NaTC (second value)): 1
MW*/MW ([4]; 15 mM NaTC (third value)): 1100
MW*/MW [4, 13]: ~1
net flux effect due to 1% HP-β-CD [10]: the flux remains unaffected by the excipient

Cc1cccc(Nc2ccccc2C(=O)O)c1C [mefenamic acid]
solubility at 18 h ([1]; aqueous buffer): 0.021 ± 0.005 µg/mL (≈ 0.087 µM)
solubility at 18 h ([1]; aqueous with cosolvent or surfactant or cyclodextrin): < 3 µg/mL
pKa at 18 h [1, 14]: 4.3 ± 0.3
pKa at 18 h [1, 15]: 5.8 ± 0.1
pKa at 18 h [1, 16]: 5.7 ± 0.1
pKa at 18 h [1, 17]: 4.4 ± 0.4
pKa at 18 h [1, 18]: 4.3
pKa at 18 h [1, 19]: 5.2 ± 0.1
pKa at 18 h [1, 20]: 4.4 ± 0.2
pKa at 18 h [1, 21]: 4.5
pKa at 18 h [1, 22]: 4 ± 0.3
pKa at 18 h [1, 23]: 4.5 ± 1.1
pKa at 18 h [1, 24]: 4
pKa at 18 h [1, 25]: 4.6 ± 0.1
pKa at 18 h [1, 26]: 4.1 ± 0.6
pKa at 18 h [1, 27]: 4.5 ± 0.2
pKa at 18 h [1, 28]: 4.1 ± 0.3
So ± SD ([1]; excipient 3 mM NaTC): 0.11 ± 0.03 µg/mL
So^APP ± SD ([1]; excipient 3 mM NaTC): 1.9 ± 0.4 µg/mL
So ± SD ([1]; excipient 15 mM NaTC): 0.10 ± 0.03 µg/mL
So^APP ± SD ([1]; excipient 15 mM NaTC): 1.4 ± 0.3 µg/mL
So^APP ± SD ([1]; excipient 0.1M KCl): 0.023 ± 0.005 µg/mL
So^APP ± SD ([1]; excipient 0.2M KCl): 0.021 µg/mL
So ± SD ([1]; excipient 1% HP-b-CD): 0.61 µg/mL
So^APP ± SD ([1]; excipient 1% HP-b-CD): 2.9 ± 0.5 µg/mL
So^APP ± SD ([1]; excipient 1% NMP): 0.062 ± 0.010 µg/mL
So^APP ± SD ([1]; excipient 1% PEG400): 0.021 µg/mL
So^APP ± SD ([1]; excipient 1% PG): 0.021 µg/mL
So^APP ± SD ([1]; excipient 5% PEG400): 0.028 µg/mL
So^APP ± SD ([1]; excipient 5% PG): 0.056 µg/mL
So ± SD ([1]; excipient […] HP-b-CD): 0.28 ± 0.02 µg/mL
So^APP ± SD ([1]; excipient […] HP-b-CD): 0.34 ± 0.02 µg/mL
So^APP ± SD ([1]; excipient […] NMP): 0.019 ± 0.009 µg/mL
So^APP ± SD ([1]; excipient […] PEG400): 0.004 ± 0.002 µg/mL
So^APP ± SD ([1]; excipient […] PG): 0.021 µg/mL
intrinsic solubility in excipient free buffer ([1]; excipient free): 0.021 µg/mL
So^APP ± SD ([1]; excipient none): 0.021 ± 0.005 µg/mL
salt limit (sdiff 3-4 approximation) ([1]; three orders of magnitude above excipient-free intrinsic solubility): 21 µg/mL
pKa [7]: 4.39 ± 0.09
PABL 0 mM NaTC [8]: 782
PABL 3 mM NaTC [8]: 909
PABL 15 mM NaTC [8]: 795
refined ABL thickness [8]: exceeding 75 μm
MW*/MW ([4]; 3 mM NaTC (second value)): 3
MW*/MW ([4]; 15 mM NaTC (third value)): 4
MW*/MW [4, 13]: 4
net flux effect due to 1% HP-β-CD [10]: In acid solutions, flux is helped by 1% HP-β-CD, but in neutral solutions, there is a net loss
